Source: paper PMC7767178 (International Journal of Molecular Sciences, 2020)
Structures can show the parent of a compound that is named as a salt. Where two headings read alike, the source gives them in different places.

Key:
A. veronii ACCC61732 [1] = assay: microbe, parasite or virus in culture; assay type: cell-based; conditions: for MIC: Aeromonas veronii; for MICa, MIC of the antibiotic used alone: checkerboard
Excerpt: The checkerboard microtiter assay was used to determine the combinations of peptides with different antibiotics (including quinolone, rifamycin, peptide antibiotics, aminoglycoside, tetracycline, and chloramphenicol). […] The fractional inhibitory concentration (FIC) was used to calculate the combination effects using the following formula: FIC index (FICI) = MIC(peptide in combination)/MIC(peptide alone) + MIC(antibiotic in combination)/MIC(antibiotic alone). FICI ≤ 0.5 means synergistic, 0.5 < FICI ≤ 1 means additive action, 1 < FICI ≤ 4 means indifference, and FICI > 4 means antagonism.

A. veronii ACCC61732 [2] = assay: Resistance development, 30 serial passages; assay type: cell-based; conditions: A. veronii ACCC61732, 30 passages (30 days)
Method: The development of bacterial resistance of peptides was performed by the MIC assays. […] GEN, CIP, and PMB were used as controls. […] The MIC values were measured as described above. The serial passaging was repeated for 30 days.

Gram-negative bacteria = conditions: data not shown; ref our previous study; cited from earlier work
Excerpt: A. veronii is a widely distributed novel pathogen that can infect humans and animals. Due to overuse of broad-spectrum antibiotics in fish hatcheries, agriculture, and clinical settings, there has been an increase in antibiotic resistance of Aeromonas species, illustrating an emerging potential health concern.

A. veronii ACCC61732 [3] = assay: Outer membrane permeabilization, NPN assay; assay type: cell-based; conditions: NPN fluorescence, 1×–4× MIC
Method: The outer membrane permeabilization abilities of peptides were determined using the fluorescent NPN assay. Mid-log phase A. veronii ACCC61732 was collected by centrifugation, washed twice, and then suspended in N-2-hydroxyethylpiperazine-n-2-ethane sulfonic acid (HEPES) buffer (pH 7.4) to an OD600nm = 0.4. […] Fluorescence intensity was recorded until no further increase with a microplate reader (excitation/emission, 328/438 nm).

[4] = ACCC61732, checkerboard, Tables S1–S5, identical values of one substance within a block given once, read-out: MICa, MIC of the antibiotic used alone
[5] = Tables S1–S5, identical values of one substance within a block given once

Compound: O=C(N[C@H](CO)[C@H](O)c1ccc([N+](=O)[O-])cc1)C(Cl)Cl [CHLO, chloramphenicol]
- MIC (A. veronii ACCC61732 [1]; [4]): 0.25 µg/mL

Compound: CCN1CCN(c2cc3c(cc2F)c(=O)c(C(=O)O)cn3C2CC2)CC1 [ENRO, enrofloxacin]
- MIC (A. veronii ACCC61732 [1]; [4]): 0.25 µg/mL

Compound: CNC(C)C1CCC(N)C(OC2C(N)CC(N)C(OC3OCC(C)(O)C(NC)C3O)C2O)O1 (stereo not shown) [GEN, gentamicin, reference compound]
- increase of MIC after 30 serial passages (A. veronii ACCC61732 [2]): 31 fold

Compound: NC[C@H]1O[C@H](O[C@H]2[C@H](O)[C@@H](O[C@H]3O[C@H](CO)[C@@H](O)[C@H](N)[C@H]3O)[C@H](N)C[C@@H]2N)[C@H](O)[C@@H](O)[C@@H]1O [KANA, kanamycin sulfate]
- MIC (A. veronii ACCC61732 [1]; [4]): 8 µg/mL

Compound: CCn1cc(C(=O)O)c(=O)c2cc(F)c(N3CCNCC3)cc21 [NOR, norfloxacin]
- MIC (A. veronii ACCC61732 [1]; [4]): 0.5 µg/mL

Compound: CC1COc2c(N3CCN(C)CC3)c(F)cc3c(=O)c(C(=O)O)cn1c23 (stereo not shown) [OFX, ofloxacin]
- MIC (A. veronii ACCC61732 [1]; [4]): 0.25 µg/mL

Compound: [H]/N=C(/N)N[C@H]1[C@H](O)[C@@H](O)[C@H](O[C@@H]2O[C@@H](C)[C@](O)(C=O)[C@H]2O[C@@H]2O[C@@H](CO)[C@H](O)[C@@H](O)[C@@H]2NC)[C@@H](N/C(N)=N\[H])[C@@H]1O [STRE, streptomycin sulfate]
- MIC (A. veronii ACCC61732 [1]; [4]): 64 µg/mL

Compound: CN[C@H](CC(C)C)C(=O)N[C@H]1C(=O)N[C@@H](CC(N)=O)C(=O)N[C@H]2C(=O)N[C@H]3C(=O)N[C@H](C(=O)N[C@H](C(=O)O)c4cc(O)cc(O)c4-c4cc3ccc4O)[C@H](O)c3ccc(c(Cl)c3)Oc3cc2cc(c3O[C@@H]2O[C@H](CO)[C@@H](O)[C@H](O)[C@H]2O[C@H]2C[C@](C)(N)[C@H](O)[C@H](C)O2)Oc2ccc(cc2Cl)[C@H]1O [VAN, vancomycin]
- MIC (A. veronii ACCC61732 [1]; ACCC61732, read-out: MICa, MIC of the antibiotic used alone): 16 µg/mL

Compound: AACCGFWNVVYRNGVRVHRRN [SN1, analog of N6 without the β-sheet structural feature]
- antimicrobial activity against Gram-negative bacteria (Gram-negative bacteria): lost the antimicrobial activity

Compound: GFWNVVYRNGVAACCRVHRRN [SN3, analog of N6 without the β-sheet structural feature]
- antimicrobial activity against Gram-negative bacteria (Gram-negative bacteria): lost the antimicrobial activity

Compound: VCVYRCHRRANGFAWNNGVRV [N2413, analog of N6 without the β-sheet structural feature]
- antimicrobial activity against Gram-negative bacteria (Gram-negative bacteria): lost the antimicrobial activity

Compound: VCVYRGFAWNCHRRANNGVRV [N2143, analog of N6 without the β-sheet structural feature]
- antimicrobial activity against Gram-negative bacteria (Gram-negative bacteria): lost the antimicrobial activity

Compound: doxycycline hyclate
- MICa, MIC of the antibiotic used alone (A. veronii ACCC61732 [1]; [5]): 1 µg/mL

Compound: polymyxin B [PMB, reference compound]
- MICa, MIC of the antibiotic used alone (A. veronii ACCC61732 [1]; [5]): 8 µg/mL
- ability to penetrate the outer membrane (A. veronii ACCC61732 [3]): higher ability to penetrate the outer membrane than N6NH2
- increase of MIC after 30 serial passages (A. veronii ACCC61732 [2]): one-fold
